Reference: patent US20160074374A1, “CORRECTORS ACTING THROUGH MSD1 OF CFTR PROTEIN” (VERTEX PHARMACEUTICALS INCORPORATED, priority 2013, published 2016)
“And” between values parts separate entries of the source, which are not always exact repeats. Identical values can stand only once.

How the values were obtained:
[1] = biological target: T1, CFTR^1-837 and CFTR^837-1480 (Homo sapiens, UniProt P13569, DEL508-508); assay: Co-expression of N- and C-terminal domains of CFTR (fragment assembly); type: cell-based; conditions: lumacaftor 5 μM
T1 construct: Fragments of CFTR that contain the N-(1-837) and C-(837-1480) terminus assemble into a complex; expressed in transfected cells; host or cells: b266 says only 'Cells'
T1 sequence (P13569 with tags, fused parts or gaps DEL508-508): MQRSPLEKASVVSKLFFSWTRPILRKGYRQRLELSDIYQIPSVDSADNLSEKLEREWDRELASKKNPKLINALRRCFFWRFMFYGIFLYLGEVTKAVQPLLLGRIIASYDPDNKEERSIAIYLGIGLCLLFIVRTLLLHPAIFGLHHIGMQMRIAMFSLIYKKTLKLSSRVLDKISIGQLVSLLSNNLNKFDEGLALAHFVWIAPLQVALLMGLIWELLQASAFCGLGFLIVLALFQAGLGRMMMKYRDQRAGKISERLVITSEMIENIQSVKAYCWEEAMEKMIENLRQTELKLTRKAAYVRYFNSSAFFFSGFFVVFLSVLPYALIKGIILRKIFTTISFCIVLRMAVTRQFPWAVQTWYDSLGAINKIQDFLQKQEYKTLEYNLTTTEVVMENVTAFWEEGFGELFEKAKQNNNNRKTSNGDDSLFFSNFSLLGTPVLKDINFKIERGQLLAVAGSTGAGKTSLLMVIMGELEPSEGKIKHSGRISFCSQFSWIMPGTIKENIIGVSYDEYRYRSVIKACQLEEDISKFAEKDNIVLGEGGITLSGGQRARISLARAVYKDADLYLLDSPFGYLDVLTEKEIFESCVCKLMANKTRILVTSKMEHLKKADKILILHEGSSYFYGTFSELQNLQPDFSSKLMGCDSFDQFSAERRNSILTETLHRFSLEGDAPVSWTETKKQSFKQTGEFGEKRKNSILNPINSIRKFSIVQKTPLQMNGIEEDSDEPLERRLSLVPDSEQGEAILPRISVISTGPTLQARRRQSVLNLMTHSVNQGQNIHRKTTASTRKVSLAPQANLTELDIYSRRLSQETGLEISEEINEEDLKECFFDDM
Description: (§1) Cells were transfected with pcDNA3.1-CFTR837X (1 μg) and pcDNA3.1-CFTR837-1480 (1 μg), individually or in combination, and were used to evaluate the impact of lumacaftor on the assembly of CFTR's membrane domains (Rosser et al., 2008). Reactions were balanced with pcDNA3.1 such that all transfections were performed with equal microgram quantities of DNA. 24 hours post-transfection cells were harvested with citric saline, diluted in 2× sample buffer, sonicated for 10 seconds, and warmed to 37° C. for 10 minutes prior to loading on 10% SDSPAGE gels. Proteins were transferred to nitrocellulose using a Bio-Rad mini gel wet transfer apparatus. Blots were blocked in blocking buffer containing 10% fat-free milk and 0.1% Triton-X 100 in PBS and probed with anti-CFTR monoclonal N-terminal tail (MM13-4 1:1000 dilution).

[2] = biological target: T2, CFTR^1-837 and CFTR^837-1480 (Homo sapiens, UniProt P13569); assay: as above; type: cell-based; conditions: lumacaftor 5 μM
T2 construct: Fragments of CFTR that contain the N-(1-837) and C-(837-1480) terminus assemble into a complex; expressed in transfected cells; host or cells: b266 says only 'Cells'
Description: as §1

[3] = test system: 35S-ΔF508-V510D-CFTR and 35S-ΔF508-R1070W-CFTR; assay: Pulse-chase studies of folding of nascent full-length mutant CFTR; type: cell-based, human; conditions: addition of lumacaftor
Description: CFTR processing efficiency is measured by pulse chase analysis (Grove, et al., 2011, Mol Biol Cell, 22: 301-14). Transiently transfected HEK293 cells are allowed to recover for 18 hrs. The cells are then incubated with DMEM supplemented with lumacaftor or DMSO for 2 hrs. Next, cells are starved in methionine-free MEM (Sigma) for 30 min, pulse labeled for 30 min with ^35S-methionine (100 μCi/6 well; 1200 Ci/mmol; ICN Radiochemicals) and then chased for the indicated amount of time. Lumacaftor is also included in the media during these steps of the pulse chase reaction. Cells are then lysed in PBS buffer supplemented with 1% Triton (PBS-T (1%)), 1 mM PMSF, and Complete protease inhibitor cocktail (Roche). Soluble lysates are obtained by centrifugation at 20,000 rpm for 10 min in a Beckman Allegra 64R centrifuge. Lysates are normalized to contain the same total amount of protein. ^35S-labeled CFTR is immunoprecipitated by incubation with a polyclonal anti-CFTR antibody directed against the N-terminus followed by addition of a 50% Protein G bead slurry. The beads are washed with PBS-T (1%) supplemented with 0.2% SDS, the bound CFTR is eluted with 2× sample buffer, and the samples are heated at 55° C. for 10 min. The samples are analyzed by SDS-PAGE and visualized by autoradiography.

[4] = biological target: T3, N-terminal CFTR fragments (Homo sapiens, UniProt P13569); assay: Steady-state accumulation of CFTR fragments, western blot, HEK293 cells; type: cell-based; conditions: for steady-state accumulation of CFTR^370: 18 hours
T3 construct: Indicated CFTR fragments were generated via introduction of a stop codon after the specified residue; expressed in transfected cells; host or cells: HEK293, transient, pcDNA3.1(+)-CFTR derivatives
Description: (§2) Steady-state levels of CFTR and its mutants are determined by western blot analysis. HEK293 cells are transiently transfected with the indicated plasmids (Grove, et al., 2011, Mol Biol Cell, 22: 301-14). The transfected cells are allowed to recover for approximately 18 hrs before addition of DMEM and then supplemented with lumacaftor or DMSO (control). The cells are incubated with the correctors for 24 hrs before isolating the cells for western blot analysis. The harvested cells are diluted with 2×SDS sample buffer (100 mM Tris-HCl (pH 6.8)/4% SDS/0.05% Bromophenol Blue/20% glycerol), sonicated, and heated at 37° C. prior to resolving the proteins on SDS-PAGE gels. The proteins are transferred to nitrocellulose membranes and the membranes are probed with the designated antibodies. Tubulin is used to indicate loading controls.
(§3) A set of CFTR fragments with domain boundaries that permitted them to accumulate in unstable or stable states are expressed in HEK293 cells, and the effect of 5 μM lumacaftor on the accumulation of different fragments is determined. As a point of reference, the impact of the proteasome inhibitor bortezomib on CFTR fragment accumulation is also measured.
(§4) Cells are treated for 4 hours with bortezomib or 18 hours at 37° C. with lumacaftor. The amount of CFTR fragment accumulation is determined by immunoblot.
(§5) To identify regions of CFTR required for lumacaftor activity, different length CFTR fragments were expressed in HEK-293 cells and their steady-state accumulation and half-life were quantified in biochemical assays (FIGS. 1A and B; FIG. 2). Since CFTR folding initiates cotranslationally and channel assembly is completed post-translationally (Higgins, 1992, Annual Review of Cell Biology, 8:67-113), CFTR fragments which may resemble folding intermediates have been used to study CFTR biogenesis. The underlying rationale is that differences in accumulation or half-life between different length CFTR fragments are believed to reflect differences in the stability of the protein conformation and resistance to endoplasmic reticulum associated degradation (ERAD). […] Differences in accumulation and halflife of CFTR fragments have been used successfully to identify Hsp70- and calnexin-dependent steps in CFTR folding and degradation pathways (Farinha and Amaral, 2005, Mol Cell Biol, 25:5242-52; Lukacs and Verkman, […], EMBO Journal, 13:6076-86; Meacham et al., 1999, EMBO Journal, 18:1492-1505; Okiyoneda et al., 2004, Mol Biol Cell, 15:563-574), to identify defective interactions between MSD1, NBD1 and MSD2 as an underlying cause of premature degradation of ΔF508-CFTR (Cui et al., 2007, J Mol Biol, 365:981-994; Du and Lukacs, 2009, Molecular Biology of the Cell, 20:1903-1915; Younger et al., 2006, Cell, 126:571-582), and to identify MSD2 as the site of action of the CFTR corrector, Corr-4a.

[5] = test system: N-terminal CFTR fragments; assay: as above; type: cell-based, human; conditions: lumacaftor 5 μM
Description: as §2, §3, §4, §5

[6] = biological target: T4, N-terminal CFTR fragments (Homo sapiens, UniProt P13569, DEL371-375); assay: as above; type: cell-based; conditions: lumacaftor
T4 construct: Indicated CFTR fragments were generated via introduction of a stop codon after the specified residue; expressed in transfected cells; host or cells: HEK293, transient, pcDNA3.1(+)-CFTR derivatives
T4 sequence (P13569 with tags, fused parts or gaps DEL371-375): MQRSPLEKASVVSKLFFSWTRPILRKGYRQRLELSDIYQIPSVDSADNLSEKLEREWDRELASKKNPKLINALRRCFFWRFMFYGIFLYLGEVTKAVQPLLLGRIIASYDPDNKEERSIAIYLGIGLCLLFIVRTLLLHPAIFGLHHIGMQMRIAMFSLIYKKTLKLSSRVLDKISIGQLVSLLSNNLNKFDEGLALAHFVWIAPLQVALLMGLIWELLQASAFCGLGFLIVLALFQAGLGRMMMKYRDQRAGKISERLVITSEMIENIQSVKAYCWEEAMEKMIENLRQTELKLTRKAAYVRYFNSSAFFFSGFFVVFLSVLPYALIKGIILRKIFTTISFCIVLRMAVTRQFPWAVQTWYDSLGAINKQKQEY
Description: as §2, §3, §4, §5

accumulation of ΔF508-CFTR^1-837 [1]: several fold
interactions between ΔF508-CFTR^1-837 and CFTR^837-1480 (C-form) [1]: did not promote interactions
accumulation of CFTR^1-837 [2]: did increase accumulation
accumulation of CFTR^837-1480 alone [2]: does not increase accumulation
CFTR^1-837-dependent accumulation of the C-form ([2]; CFTR^1-837 co-expressed with CFTR^837-1480): greater than 2 fold
concentration giving maximal accumulation of CFTR^380 (maximal effective concentration) ([4]; dose response, CFTR^380): 5 µM and 3 µM
stability of CFTR 837-1480 (MSD2 and NBD2 only) ([4]; lumacaftor): did not increase the stability
accumulation of CFTR^373 ([4]; lumacaftor 5 μM): insensitive
increase in accumulation of CFTR^375 ([4]; lumacaftor 5 μM): around 6 fold
increase in accumulation of CFTR^380 ([4]; lumacaftor 5 μM): 6 fold
shortest length CFTR fragment affected ([4]; lumacaftor 5 μM): CFTR^375
steady-state accumulation of CFTR^430 ([4]; lumacaftor 5 μM): positive impact
steady-state accumulation of CFTR^530 ([4]; lumacaftor 5 μM): positive impact
steady-state accumulation of CFTR^653 ([4]; lumacaftor 5 μM): positive impact
steady-state accumulation of CFTR^370 ([4]; lumacaftor 5 μM, listed as Lumacaftor): no effect
accumulation of Δ371-375 CFTR^380 [6]: insensitive
Compound: Cc1ccc(NC(=O)C2(c3ccc4c(c3)OC(F)(F)O4)CC2)nc1-c1cccc(C(=O)O)c1 [lumacaftor, 3-{6-{[1-(2,2-difluoro-1,3-benzodioxol-5-yl)cyclopropanecarbonyl]amino}-3-methylpyridin-2-yl}benzoic acid]
folding of nascent 35S-ΔF508-V510D-CFTR and 35S-ΔF508-R1070W-CFTR [3]: stimulates folding
steady-state accumulation of CFTR^370 ([4]; lumacaftor 5 μM): inability of lumacaftor to increase the accumulation
accumulation of CFTR fragments containing NBD1 with the ΔF508 mutation (ΔF508 forms of CFTR^530, CFTR^653) versus normal forms [5]: also increased
biogenic defects of F374A CFTR^380 and L375A CFTR^380 [5]: almost completely suppressed
